Where two headings read alike, the source gives them in different places.
What was measured:
[1] = target: T1, guinea pig liver-originated transglutaminase 2 (Cavia cutleri, UniProt P08587); test: In vitro transglutaminase 2 assay (1), [1,4-14C] putrescine incorporation into succinylated casein; assay type: biochemical; settings: for mean value (scintillation counts) / fold values relative to the mean value of the control: 2 μM; for mean value (scintillation counts): negative control 129.0, control 4147.5, FIG. 1; for fold values relative to the mean value of the control: standard deviations 0.02 and 0.01; for TGase2 enzyme activity inhibitory effect compared with streptonigrin (KN383, positive control): same dose (2 μM)
T1 construct: 1 mU of guinea pig liver-originated transglutaminase 2 (Sigma, St. Louis, MO, USA); purchased Sigma; host or cells: guinea pig liver
T1 sequence (P08587 1-690): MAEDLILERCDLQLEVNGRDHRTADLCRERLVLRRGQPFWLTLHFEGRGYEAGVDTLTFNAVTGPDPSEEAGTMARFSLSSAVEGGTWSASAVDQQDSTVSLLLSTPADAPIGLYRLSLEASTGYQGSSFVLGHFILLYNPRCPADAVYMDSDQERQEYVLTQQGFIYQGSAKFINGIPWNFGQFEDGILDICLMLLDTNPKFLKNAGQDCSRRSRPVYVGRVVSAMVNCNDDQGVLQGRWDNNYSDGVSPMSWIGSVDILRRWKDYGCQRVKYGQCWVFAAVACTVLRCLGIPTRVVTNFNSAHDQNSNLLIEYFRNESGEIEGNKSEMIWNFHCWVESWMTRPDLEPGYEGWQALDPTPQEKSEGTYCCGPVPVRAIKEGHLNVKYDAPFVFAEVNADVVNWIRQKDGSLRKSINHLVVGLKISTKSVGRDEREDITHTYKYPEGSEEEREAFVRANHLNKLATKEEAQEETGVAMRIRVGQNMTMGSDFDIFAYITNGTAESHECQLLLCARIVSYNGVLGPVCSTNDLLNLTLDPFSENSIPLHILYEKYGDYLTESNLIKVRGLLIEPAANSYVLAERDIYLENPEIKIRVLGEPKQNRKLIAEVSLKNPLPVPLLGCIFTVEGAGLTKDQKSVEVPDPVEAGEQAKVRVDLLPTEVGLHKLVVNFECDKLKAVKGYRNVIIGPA
Method: Incorporation of [1,4-14C] putrescine into succinylated casein was measured to determine the inhibitory effect of each compound on the activity of transglutaminase 2 (TGase 2). 1 mU of guinea pig liver-originated transglutaminase 2 (Sigma, St. Louis, MO, USA) was preincubated with various concentrations of GK13 or GK921 in a 0.1 mL reaction buffer with or without 10 mM CaCl2 for 10 minutes, and 0.4 mL of a substrate solution containing 2% (w/v) succinylated casein and 100 nCi of [1,4-14C] putrescine. After incubation at 37° C. for 1 hour, 4 mL of cold (4° C.) 7.5% (w/v) trichloroacetic acid (TCA) was added to terminate the reaction. The TCA-insoluble precipitate was recovered with a GF/A-grade glass filter (Millipore, Billerica, MA, USA), washed with cold 5% (w/v) TCA, dried, and assessed with a scintillation counter (Beckman Coulter, Brea, CA, USA) to evaluate radiolabel binding. Transglutaminase 2 which was pre-incubated only with a buffer was used as a positive control. The scintillation counts were compared between the example and the positive control, and IC50 values were determined through the logistic linear regression method. The presented data were the mean values of three independent experiments. In this experimental example and the following experimental example, Streptonigrin (described as KN383 in each figure of the drawing), which is an existing transglutaminase 2 inhibitor, was used as a positive control.

[2] = system: ACHN cancer cell population; test: Sulforhodamine B (SRB) assay; assay type: cell-based, Human; settings: for GI50 / SRB measurement (percentage decrease in the control value of SRB): 48 hours; for GI50: read-out: GI50 (50% growth inhibition); for SRB measurement (percentage decrease in the control value of SRB): concentration of 10^−5 M; for decrease in cell counts: concentrations 10^−6 M or lower
Method: Cells (10,000 cells/well, 100 μL) were incubated in a 96-well microtiter plate. After 24 hours of the incubation, drug (100 μL) was added to each of the wells, and the culture was further incubated at 37° C. for 48 hours. The cells were then fixed in TCA (50 μL per well). The plates were incubated at 4° C. for a minimum of 1 hour or a maximum of 3 hours. The liquid was removed from the plates, and then the plate was washed five times with water and then dried at room temperature (RT) for about 12-24 hours. The fixed cells were stained with 100 μL SRB for 5 minutes at room temperature. After the staining, the plate was washed three times with 1% (w/v) glacial acetic acid and dried at room temperature for about 12-24 hours. Next, the SRB was then dissolved in 10 mM Trizma base, and the absorbance was measured at 515 nm. The effect of the drug was expressed as GI50 (50% growth inhibition).
Specifically, each of the LDD3732, LDD3922, and LDD3959 in concentrations of 10^−9, 10^−8, 10^−7, 10^−6, and 10^−5 M were tested, and the percentage decrease in the control value of SRB was measured using an ACHN cancer cell population.

[3] = system: p53; test: P53 rescue test using western blotting; assay type: cell-based; settings: low to high concentration, cancer cell lines
Method: Whole cell lysates were prepared using a radioimmunoprecipitation assay (RIPA) buffer (150 mM sodium chloride, 1.0% (w/v) IGEPAL® CA-630 (NP-40), 0.5% (w/v) sodium deoxycholate, 0.1% (w/v) sodium dodecyl sulfate (SDS), a protease inhibitor cocktail, and 50 mM Tris-HCl (pH 8.0) containing a phosphatase inhibitor cocktail. Protein assays were performed through Bradford protein assay (Thermo Scientific, Waltham, MA, USA) to normalize protein expression. The proteins were resolved by SDS-PAGE and transferred to polyvinylidene difluoride (PVDF) membranes (Merck Millipore, Burlington, MA, USA). The membranes were blocked with 5% (w/v) BSA for 1 hour at room temperature and incubated overnight at 4° C. with labeled antibodies. Membranes were washed in TBS-T for 1 hour at room temperature and incubated together with a horseradish peroxidase (HRP)-bound secondary antibody for 1 hour at room temperature. Finally, the membranes were washed in TBS-T for 1 hour at room temperature and developed with enhanced chemiluminescence.

[4] = system: MCF7 cells; test: Cell viability in breast cancer cell lines according to concentration; assay type: cell-based; settings: MCF7, no expression of transglutaminase 2, 72 hours
Method: First breast cancer cells (MDA-MB-453, HCC-1806, HCC-1937: 10,000 cells/well, 100 μl) and second breast cancer cells (MDA-MB-231, MCF-7: 10,000 cells/well, 100 μl) were cultured in 96-well microplates.
After 24 hours, LDD3959 […] of various concentrations were added to each well, using a serum-free cell culture medium, and a reaction was allowed to proceed for 2 hours at 37° C. in the presence of 5% CO2. The culture medium was replaced with a culture medium containing 10% FSB, and a reaction was performed for 72 hours.
The existing culture medium was removed, and a new culture medium containing a water soluble tetrazolium salt was added. After that, the plate underwent a reaction at 37° C. in the presence of 5% CO2 for a duration in the range of 1 hour to 3 hours, and then absorbance was measured at 450 nm.

| SMILES | mean value (scintillation counts) [1] | fold values relative to the mean value of the control [1] | TGase2 enzyme activity inhibitory effect compared with streptonigrin (KN383, positive control) [1] | GI50 [2] [µM] | SRB measurement (percentage decrease in the control value of SRB) [2] | decrease in cell counts [2] | p53 rescue effect (Western blot band of p53) [3] | GI50 ([2]; Homo sapiens) [µM] | effective concentration for apoptosis [4] |
| --- | --- | --- | --- | --- | --- | --- | --- | --- | --- |
| O=C1C(Cl)=C(Cl)C(=O)c2[nH]c(-c3ccccc3)nc21 [LDD3732, 5,6-dichloro-2-phenyl-1H-benzo[d]imidazole-4.7-dione] | 477.5 | 0.12 | two-fold or greater stronger TGase2 enzyme activity inhibitory effects than the control | 2.2 | −41.43 | no significant decrease in cell counts | dose-dependent p53 rescue effects |  |  |
| O=C1C(Cl)=C(Cl)C(=O)c2[nH]c(-c3ccc(Br)cc3)nc21 [LDD3922, 2-(4-bromophenyl)-5,6-dichloro-1H-benzo[d]imidazole-4,7-dione] | 352.5 | 0.08 | two-fold or greater stronger TGase2 enzyme activity inhibitory effects than the control |  | 52.25 | no significant decrease in cell counts | dose-dependent p53 rescue effects | 5 |  |
| COC1=C(N)C(=O)c2nc(-c3nc(C(=O)O)c(C)c(-c4ccc(OC)c(OC)c4O)c3N)ccc2C1=O [streptonigrin, Streptonigrin, reference compound] | 1275.5 |  |  |  |  |  |  |  | low |

Reference: patent US20240300902A1, “NOVEL TRANSGLUTAMINASE 2 INHIBITOR AND USE THEREOF” (MD BIOLAB CO., LTD., priority 2021, published 2024)
